Experimental findings from PubChem BioAssay (NCI) are described below.

Each structure is given as a SMILES string. Several values for one entry are separate records, joined by “and”; a condition that tells them apart may be missing. Identical values can stand only once.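 48-hour exposure; five concentrations; linearly interpolated endpoints. Abbreviation: GI50, concentration required for 50% inhibition of growth. TGI denotes the concentration required for complete inhibition of growth.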

Among the test systems are NCI-H460 lung; MDA-MB-231 breast; CCRF-CEM leukemia; HT29 colon; SK-MEL-5 melanoma; OVCAR-5 ovarian; KM12 colon; SK-MEL-2 melanoma; NCI-H23 lung; EKVX NSCLC.
Assay in all cases: growth of human tumour cells (NCI), 48 h

As to `O=C(Cc1nc2ccc([N+](=O)[O-])cc2[nH]c1=O)C(=O)Nc1cc(Cl)c(Cl)cc1Cl`, the TGI in the assay on NCI-H460 lung, in the assay on MDA-MB-231 breast, with CCRF-CEM leukemia, with HT29 colon, with SK-MEL-5 melanoma and in the assay on OVCAR-5 ovarian was above 100 µM in each case. Also, the TGI with KM12 colon, in the assay on SK-MEL-2 melanoma, in the assay with NCI-H23 lung and in the assay on EKVX NSCLC was above 100 µM in each case.

`COc1cc(C2c3cc4c(cc3[C@@H](Nc3cccc(O)c3)C3COC(=O)[C@H]23)OCO4)cc(OC)c1O` (stereo partly specified): the GI50 in the assay with NCI-H460 lung is 0.145 µM; with CCRF-CEM leukemia, 0.237 µM; in the assay with SK-MEL-5 melanoma, 0.526 µM; in the assay on NCI-H23 lung it was 0.445 µM. In addition, the TGI with NCI-H460 lung is 3.55 µM; in the assay on MDA-MB-231 breast, 24.2 µM; with CCRF-CEM leukemia, 0.973 µM and 7.66 µM; in the assay on HT29 colon it was 18.8 µM; in the assay with SK-MEL-5 melanoma it was 6.45 µM; in the assay with OVCAR-5 ovarian, 22.7 µM. Also, the TGI in the assay with KM12 colon was determined as 11.6 µM; in the assay on SK-MEL-2 melanoma, 15 µM; in the assay on NCI-H23 lung, 5.52 µM; with EKVX NSCLC, 15 µM.

Turning to `Cn1c(COC(=O)NCCN2CCOCC2)nc2c(N3CCOCC3)nc(-c3ccccc3)nc21`, the GI50 is 1.25 µM in the assay with NCI-H460 lung; 1.3 µM in the assay on MDA-MB-231 breast; 0.306 µM in the assay on CCRF-CEM leukemia; 0.35 µM in the assay with HT29 colon; 1.64 µM with SK-MEL-5 melanoma; 1.6 µM with OVCAR-5 ovarian. The GI50 is 1.53 µM with KM12 colon, 1.65 µM in the assay on SK-MEL-2 melanoma, 1.84 µM in the assay on NCI-H23 lung and 1.48 µM with EKVX NSCLC. Moreover, the TGI in the assay on NCI-H460 lung was 2.77 µM; with MDA-MB-231 breast, 2.88 µM; in the assay with CCRF-CEM leukemia it was 2.17 µM; with HT29 colon, 1.66 µM; with SK-MEL-5 melanoma, 3.05 µM; in the assay on OVCAR-5 ovarian it was 3.66 µM. For the same molecule, the TGI worked out at 3.4 µM in the assay on KM12 colon, 3.2 µM with SK-MEL-2 melanoma, 4.1 µM in the assay with NCI-H23 lung and 3.36 µM with EKVX NSCLC.

Consider `COc1cc(OC)cc(N2CCN(C(=O)Nc3nc4cc(F)ccc4nc3OC)CC2)c1`, for which the GI50 in the assay with NCI-H460 lung was 0.0323 µM and 0.0358 µM and 0.0339 µM; in the assay with MDA-MB-231 breast, 0.0524 µM and 0.0976 µM and 0.0361 µM; in the assay on CCRF-CEM leukemia, 0.0899 µM and 0.0338 µM and 0.0345 µM; with HT29 colon it was 0.0343 µM and 0.0372 µM and 0.0306 µM; in the assay on SK-MEL-5 melanoma, < 0.023 µM and 0.0297 µM and 0.023 µM; in the assay with OVCAR-5 ovarian, 0.0557 µM and 0.158 µM and 0.0528 µM. The GI50 was 0.0282 µM and 0.0358 µM and 0.0302 µM in the assay with KM12 colon; 0.277 µM and 0.0666 µM and 0.0306 µM in the assay with SK-MEL-2 melanoma; 0.0578 µM and 0.062 µM and 0.052 µM in the assay with NCI-H23 lung; 0.0543 µM and 0.345 µM and 0.0636 µM in the assay on EKVX NSCLC. The TGI in the assay on NCI-H460 lung is 25.3 µM and 14.9 µM; in the assay with CCRF-CEM leukemia, above 100 µM; in the assay with SK-MEL-5 melanoma, 0.294 µM and 0.399 µM and 0.16 µM; with OVCAR-5 ovarian, above 100 µM; in the assay with KM12 colon it was above 100 µM; in the assay with SK-MEL-2 melanoma, 29.1 µM and 10.8 µM. The TGI in the assay with NCI-H23 lung was 52.2 µM and 34.5 µM; with EKVX NSCLC it was > 87.1 µM and 66.6 µM.

As to `CC(=O)N[C@@H]1CCC[C@H](C(=O)Nc2cc(-c3cnn4c3CC(C)(C)C4)c(Cl)cn2)C1`, the GI50 with NCI-H460 lung is below 0.0115 µM; with MDA-MB-231 breast, below 0.0133 µM; in the assay on CCRF-CEM leukemia it was below 0.01 µM; with HT29 colon, below 0.0108 µM; in the assay on SK-MEL-5 melanoma, below 0.01 µM; with OVCAR-5 ovarian, below 0.01 µM. In addition, the GI50 was below 0.01 µM in the assay on KM12 colon, 0.0121 µM in the assay on SK-MEL-2 melanoma, below 0.0116 µM in the assay with NCI-H23 lung and 0.0197 µM in the assay with EKVX NSCLC. For the same molecule, the TGI is 12.4 µM in the assay on NCI-H460 lung; above 100 µM in the assay with MDA-MB-231 breast; 0.315 µM with CCRF-CEM leukemia; above 100 µM with HT29 colon; below 0.0406 µM in the assay on SK-MEL-5 melanoma; above 100 µM in the assay on OVCAR-5 ovarian. The TGI was 12.2 µM in the assay with KM12 colon, 0.041 µM in the assay on SK-MEL-2 melanoma and 0.181 µM in the assay on NCI-H23 lung.

Consider `O=C(NO)C(O)C(O)C(O)C(O)CO` (stereo unspecified), for which the GI50 in the assay with NCI-H460 lung was 54.6 µM and 37.9 µM; with MDA-MB-231 breast, > 100 µM and 58.8 µM; in the assay on CCRF-CEM leukemia it was 50.6 µM; in the assay on HT29 colon it was > 100 µM and 38.1 µM; with SK-MEL-5 melanoma it was above 100 µM; with OVCAR-5 ovarian, above 100 µM. In addition, the GI50 was > 100 µM and 53.2 µM with KM12 colon; > 100 µM and 76.6 µM in the assay with SK-MEL-2 melanoma; above 100 µM with NCI-H23 lung; above 100 µM in the assay on EKVX NSCLC. In addition, the TGI with NCI-H460 lung, in the assay on MDA-MB-231 breast, in the assay on CCRF-CEM leukemia, in the assay with HT29 colon, in the assay on SK-MEL-5 melanoma and with OVCAR-5 ovarian was above 100 µM each time. The TGI with KM12 colon, with SK-MEL-2 melanoma, with NCI-H23 lung and with EKVX NSCLC was above 100 µM in each case.
